Active and inactive are the calls of the source. The rule behind the calls is not given here.
Tests used:
Mus musculus [1] = assay: Antinociceptive effect in Kunming mouse assessed as inhibition of acetic acid-induced writhing response at 20 mg/kg, sc administered 30 mins prior to acetic acid challenge measured 5 mins post injection for 15 mins; type: functional
Mus musculus [2] = assay: Antinociceptive effect in C57BL/6 mouse assessed as inhibition of spared nerve injury-induced neuropathic pain response at 100 mg/kg, ip measured after 5 to 7 days of recovery by Von Frey filament assay; type: functional, organism-based
Mus musculus [3] = assay: Antinociceptive effect in Kunming mouse assessed as inhibition of acetic acid-induced writhing response at 20 mg/kg, ip administered 30 mins prior to acetic acid challenge measured 5 mins post injection for 15 mins; type: functional
Mus musculus [4] = assay: Antinociceptive activity in ICR mouse assessed as reduction in licking and biting time during second phase at 10 mg/kg, ip administered 10 mins prior to formalin challenge measured for 10 to 30 mins (reference value: 178 +/- 19 s); type: functional
Mus musculus [5] = assay: Antinociceptive effect in C57BL/6 mouse assessed as inhibition of spared nerve injury-induced neuropathic pain response at 10 to 40 mg/kg, ip measured after 5 to 7 days of recovery by Von Frey filament assay; type: functional, organism-based
Mus musculus [6] = assay: Antinociceptive activity in ICR mouse assessed as reduction in licking and biting time during second phase at 10 mg/kg, ip administered 10 mins prior to formalin challenge measured for 10 to 30 mins (reference value: 159 +/- 15 s); type: functional
Mus musculus [7] = assay: Antinociceptive effect in Kunming mouse assessed as inhibition of acetic acid-induced writhing response at 100 mg/kg, sc administered 30 mins prior to acetic acid challenge measured 5 mins post injection for 15 mins; type: functional
Mus musculus [8] = assay: Antinociceptive effect in Kunming mouse assessed as inhibition of acetic acid-induced writhing response at 100 mg/kg, ip administered 30 mins prior to acetic acid challenge measured 5 mins post injection for 15 mins; type: functional
Mus musculus [9] = assay: Antinociceptive activity in ICR mouse assessed as reduction in licking and biting time during first phase at 10 mg/kg, ip administered 10 mins prior to formalin challenge measured for 10 mins (reference value: 156 +/- 8 s); type: functional
Mus musculus [10] = assay: Antinociceptive activity in ICR mouse assessed as reduction in licking and biting time during first phase at 20 mg/kg, ip administered 10 mins prior to formalin challenge measured for 10 mins (reference value: 156 +/- 8 s); type: functional
Mus musculus [11] = assay: Antinociceptive activity in ICR mouse assessed as reduction in licking and biting time during second phase at 10 mg/kg, ip administered 10 mins prior to formalin challenge measured for 10 to 30 mins (reference value: 159 +/- 25 s); type: functional
Mus musculus [12] = assay: Antinociceptive activity in ICR mouse assessed as reduction in licking and biting time during second phase at 20 mg/kg, ip administered 10 mins prior to formalin challenge measured for 10 to 30 mins (reference value: 159 +/- 25 s); type: functional
Mus musculus [13] = assay: Antinociceptive activity in ip dosed ICR mouse assessed as reduction in licking and biting time during first phase administered 10 mins prior to formalin challenge measured for 10 mins relative to vehicle control; type: functional, organism-based
Mus musculus [14] = assay: Antinociceptive activity in ip dosed ICR mouse assessed as reduction in licking and biting time during second phase administered 10 mins prior to formalin challenge measured for 10 to 30 mins relative to vehicle control; type: functional, organism-based
Mus musculus [15] = assay: Antinociceptive effect in C57BL/6 mouse assessed as inhibition of spared nerve injury-induced neuropathic pain response at 10 to 20 mg/kg, ip measured after 5 to 7 days of recovery by Von Frey filament assay; type: functional, organism-based

SMILES: COc1cc([C@H]2[C@H](C(=O)OC3CCN(C)CC3)[C@H](c3ccc(O)c(OC)c3)[C@H]2C(=O)OC2CCN(C)CC2)ccc1O
- inhibition in vivo at 20 mg/kg (Mus musculus [1]): 41.2%

SMILES: NCC1(CC(=O)O)CCCCC1
- inhibition (Mus musculus [2]): Active

SMILES: COc1cc([C@H]2[C@H](C(=O)O[C@@H]3C[C@@H]4[C@@H](CN(C)C[C@H]4C)[C@@H]3C)[C@H](c3ccc(O)c(OC)c3)[C@H]2C(=O)O[C@@H]2C[C@@H]3[C@@H](CN(C)C[C@H]3C)[C@@H]2C)ccc1O
- inhibition in vivo at 20 mg/kg (Mus musculus [1]): 65.1%

SMILES: C=C1CN(C)C[C@H]2[C@H](C)[C@H](OC(=O)[C@H]3[C@H](c4ccc(O)c(OC)c4)[C@H](C(=O)O[C@@H]4C[C@H]5C(=C)CN(C)C[C@H]5[C@@H]4C)[C@H]3c3ccc(O)c(OC)c3)C[C@@H]12
- inhibition in vivo at 20 mg/kg (Mus musculus [1]): 77.8%
- inhibition in vivo at 20 mg/kg (Mus musculus [3]): 89.4%
- Time (Mus musculus [4]): 87 s
- inhibition (Mus musculus [5]): Active

SMILES: COc1cc([C@H]2[C@H](C(=O)OCCC3CCN(C)CC3)[C@H](c3ccc(O)c(OC)c3)[C@H]2C(=O)OCCC2CCN(C)CC2)ccc1O
- inhibition in vivo at 20 mg/kg (Mus musculus [1]): 22.4%

SMILES: CCCN1C[C@H]2[C@H](C)[C@H](OC(=O)[C@H]3[C@H](c4ccc(O)c(OC)c4)[C@H](C(=O)O[C@@H]4C[C@@H]5[C@@H](CN(CCC)C[C@@H]5C)[C@@H]4C)[C@H]3c3ccc(O)c(OC)c3)C[C@H]2[C@@H](C)C1
- inhibition in vivo at 20 mg/kg (Mus musculus [1]): 48.2%

SMILES: COc1cc([C@H]2[C@H](C(=O)OCC3CCN(C)CC3)[C@H](c3ccc(O)c(OC)c3)[C@H]2C(=O)OCC2CCN(C)CC2)ccc1O
- inhibition in vivo at 20 mg/kg (Mus musculus [1]): 75.7%
- Time (Mus musculus [6]): 95 s
- inhibition (Mus musculus [5]): Active

SMILES: COc1cc([C@H]2[C@H](C(=O)O[C@@H]3C[C@@H]4[C@@H](CN(CC5CC5)C[C@@H]4C)[C@@H]3C)[C@H](c3ccc(O)c(OC)c3)[C@H]2C(=O)O[C@@H]2C[C@@H]3[C@@H](CN(CC4CC4)C[C@@H]3C)[C@@H]2C)ccc1O
- inhibition in vivo at 20 mg/kg (Mus musculus [3]): 88.1%

SMILES: C=CCN1C[C@H]2[C@H](C)[C@H](OC(=O)[C@H]3[C@H](c4ccc(O)c(OC)c4)[C@H](C(=O)O[C@@H]4C[C@@H]5[C@@H](CN(CC=C)C[C@@H]5C)[C@@H]4C)[C@H]3c3ccc(O)c(OC)c3)C[C@H]2[C@@H](C)C1
- inhibition in vivo at 20 mg/kg (Mus musculus [1]): 70.6%

SMILES: CC(=O)Oc1ccccc1C(=O)O [ASPIRIN DL-LYSINE]
- inhibition in vivo at 100 mg/kg (Mus musculus [7]): 81.9%
- inhibition in vivo at 100 mg/kg (Mus musculus [8]): 85.4%

SMILES: COc1cc([C@H]2[C@H](C(=O)O[C@@H]3C[C@@H]4[C@@H](CN(C)C[C@@H]4C)[C@@H]3C)[C@H](c3ccc(O)c(OC)c3)[C@H]2C(=O)O[C@@H]2C[C@@H]3[C@@H](CN(C)C[C@@H]3C)[C@@H]2C)ccc1O [INCARVILLATEINE]
- inhibition in vivo at 20 mg/kg (Mus musculus [1]): 69.2%
- inhibition in vivo at 20 mg/kg (Mus musculus [3]): 78.5%
- Time (Mus musculus [9]): 101 s
- Time (Mus musculus [10]): 51 s
- Time (Mus musculus [11]): 67 s
- Time (Mus musculus [12]): 1 s
- Activity (Mus musculus [13]): Dose-dependent effect
- Activity (Mus musculus [14]): Dose-dependent effect
- inhibition (Mus musculus [15]): Active

SMILES: CCCCN1C[C@H]2[C@H](C)[C@H](OC(=O)[C@H]3[C@H](c4ccc(O)c(OC)c4)[C@H](C(=O)O[C@@H]4C[C@@H]5[C@@H](CN(CCCC)C[C@@H]5C)[C@@H]4C)[C@H]3c3ccc(O)c(OC)c3)C[C@H]2[C@@H](C)C1
- inhibition in vivo at 20 mg/kg (Mus musculus [1]): 13.1%
